Data from PubChem BioAssay (NCI).
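The compound was tested at five concentrations on cells cultured in 96-well plates, with a 48-hour exposure period. Here, GI50 denotes the concentration required for 50% inhibition of growth. TGI: concentration producing complete growth inhibition.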

How the values were obtained:
Assay in all cases: NCI anticancer screen, dose series, 48 h
[1] = tested on: A549 NSCLC
[2] = tested on: OVCAR-5 ovarian
[3] = tested on: SR leukemia
[4] = tested on: IGROV1 ovarian
[5] = tested on: BT-549 breast
[6] = tested on: K-562 leukemia
[7] = tested on: U251 CNS
[8] = tested on: MOLT-4 leukemia
[9] = tested on: KM12 colon
[10] = tested on: OVCAR-3 ovarian
[11] = tested on: UACC-62 melanoma
[12] = tested on: LOX IMVI melanoma
[13] = tested on: UACC-257 melanoma
[14] = tested on: SK-MEL-5 melanoma
[15] = tested on: CAKI-1 renal
[16] = tested on: ACHN renal
[17] = tested on: OVCAR-8 ovarian
[18] = tested on: MDA-MB-231 breast
[19] = tested on: SK-OV-3 ovarian
[20] = tested on: TK-10 renal
[21] = tested on: NCI/ADR-RES ovarian
[22] = tested on: PC-3 prostate
[23] = tested on: HL-60(TB) leukemia
[24] = tested on: A498 renal
[25] = tested on: SF-295 CNS
[26] = tested on: M14 melanoma
[27] = tested on: SF-539 CNS
[28] = tested on: NCI-H226 lung
[29] = tested on: SW-620 colon
[30] = tested on: OVCAR-4 ovarian
[31] = tested on: HCC-2998 colon
[32] = tested on: SNB-75 CNS
[33] = tested on: DU-145 prostate
[34] = tested on: MALME-3M melanoma
[35] = tested on: HCT-15 colon
[36] = tested on: EKVX NSCLC
[37] = tested on: HOP-62 NSCLC
[38] = tested on: RPMI-8226 leukemia
[39] = tested on: RXF 393 renal
[40] = tested on: HT29 colon
[41] = tested on: UO-31 renal
[42] = tested on: SK-MEL-2 melanoma
[43] = tested on: CCRF-CEM leukemia
[44] = tested on: T-47D breast
[45] = tested on: HCT-116 colon
[46] = tested on: NCI-H460 lung
[47] = tested on: SNB-19 CNS
[48] = tested on: NCI-H522 lung
[49] = tested on: COLO 205 colon
[50] = tested on: SN12C renal
[51] = tested on: HS 578T breast
[52] = tested on: MDA-MB-435
[53] = tested on: SK-MEL-28 melanoma
[54] = tested on: NCI-H23 lung
[55] = tested on: SF-268 CNS
[56] = tested on: 786-0 renal
[57] = tested on: MCF7 breast
[58] = tested on: HOP-92 NSCLC

Work on `CCn1ccnc1C(=O)/C=C/c1ccc(CC(=O)Nc2ccc(F)cc2)cc1` yielded a GI50 [1] of 4.16 µM, a TGI [1] of 12.7 µM and a GI50 [2] of 4.97 µM. For the same compound, the TGI [2] was > 16.7 µM, the GI50 [3] was 0.529 µM and the TGI [3] was 11.1 µM. For the same compound, the GI50 [4] was 4.63 µM, the TGI [4] was > 16.7 µM and the GI50 [5] was 2.94 µM. For the same compound, the TGI [5] was 7.03 µM, the GI50 [6] was 2.06 µM and the TGI [6] was > 16.7 µM. The GI50 [7] was 1.88 µM, the TGI [7] was 7.94 µM and the GI50 [8] was 5.28 µM. The TGI [8] was 14.5 µM, the GI50 [9] was 3.06 µM and the TGI [9] was 8.33 µM. For the same compound, the GI50 [10] was 3.92 µM, the TGI [10] was > 16.7 µM and the GI50 [11] was 2.83 µM. It also gave a TGI [11] of 6.57 µM, a GI50 [12] of 0.561 µM and a TGI [12] of 2.83 µM. For the same compound, the GI50 [13] was 14 µM, the TGI [13] was > 16.7 µM and the GI50 [14] was 5.74 µM. The TGI [14] was > 16.7 µM, the GI50 [15] was 5.08 µM and the TGI [15] was > 16.7 µM. The GI50 [16] was 3.95 µM, the TGI [16] was 11.7 µM and the GI50 [17] was 4.86 µM. For the same compound, the TGI [17] was > 16.7 µM, the GI50 [18] was 4.36 µM and the TGI [18] was > 16.7 µM. For the same compound, the GI50 [19] was 6.97 µM, the TGI [19] was > 16.7 µM and the GI50 [20] was 6.01 µM. For the same compound, the TGI [20] was > 16.7 µM, the GI50 [21] was 5.37 µM and the TGI [21] was > 16.7 µM. The GI50 [22] was 7.06 µM, the TGI [22] was > 16.7 µM and the GI50 [23] was 3.18 µM. For the same compound, the TGI [23] was 10.9 µM, the GI50 [24] was 3.73 µM and the TGI [24] was 15.5 µM. The GI50 [25] was 4.41 µM, the TGI [25] was > 16.7 µM and the GI50 [26] was 3.02 µM. For the same compound, the TGI [26] was 8.06 µM, the GI50 [27] was 2.93 µM and the TGI [27] was 6.15 µM. The GI50 [28] was 3.61 µM, the TGI [28] was 9.53 µM and the GI50 [29] was 4.29 µM. The TGI [29] was > 16.7 µM, the GI50 [30] was 3.31 µM and the TGI [30] was > 16.7 µM. For the same compound, the GI50 [31] was 5.1 µM, the TGI [31] was > 16.7 µM and the GI50 [32] was 2.81 µM. For the same compound, the TGI [32] was > 16.7 µM, the GI50 [33] was 4.45 µM and the TGI [33] was > 16.7 µM. For the same compound, the GI50 [34] was > 16.7 µM, the TGI [34] was > 16.7 µM and the GI50 [35] was 1.93 µM. It also gave a TGI [35] of 8.96 µM, a GI50 [36] of 3.59 µM and a TGI [36] of 12.2 µM. It also gave a GI50 [37] of 3.92 µM, a TGI [37] of 9.93 µM and a GI50 [38] of 2.28 µM. For the same compound, the TGI [38] was 8.09 µM, the GI50 [39] was 3.39 µM and the TGI [39] was 8.66 µM. The GI50 [40] was 5.64 µM, the TGI [40] was > 16.7 µM and the GI50 [41] was 2.65 µM. For the same compound, the TGI [41] was 10.5 µM, the GI50 [42] was 6.26 µM and the TGI [42] was > 16.7 µM. It also gave a GI50 [43] of 4.35 µM, a TGI [43] of 16.3 µM and a GI50 [44] of 3.79 µM. The TGI [44] was > 16.7 µM, the GI50 [45] was 1.84 µM and the TGI [45] was 4.4 µM. The GI50 [46] was 2.64 µM, the TGI [46] was 6.51 µM and the GI50 [47] was 3.58 µM. The TGI [47] was > 16.7 µM, the GI50 [48] was 3.92 µM and the TGI [48] was 10.2 µM. For the same compound, the GI50 [49] was 4.29 µM, the TGI [49] was 13.1 µM and the GI50 [50] was 3.71 µM. For the same compound, the TGI [50] was > 16.7 µM, the GI50 [51] was 5.36 µM and the TGI [51] was > 16.7 µM. The GI50 [52] was 4.58 µM, the TGI [52] was > 16.7 µM and the GI50 [53] was 4.92 µM. For the same compound, the TGI [53] was > 16.7 µM, the GI50 [54] was 4.25 µM and the TGI [54] was > 16.7 µM. The GI50 [55] was 3.81 µM, the TGI [55] was > 16.7 µM and the GI50 [56] was 4.36 µM. For the same compound, the TGI [56] was > 16.7 µM, the GI50 [57] was 2.52 µM and the TGI [57] was > 16.7 µM. For the same compound, the GI50 [58] was 3.32 µM and the TGI [58] was 8.83 µM.
